Data set [1] addresses T1, tRNA (cytosine(38)-C(5))-methyltransferase (Homo sapiens, UniProt O14717).
T1 sequence (O14717 whole entry): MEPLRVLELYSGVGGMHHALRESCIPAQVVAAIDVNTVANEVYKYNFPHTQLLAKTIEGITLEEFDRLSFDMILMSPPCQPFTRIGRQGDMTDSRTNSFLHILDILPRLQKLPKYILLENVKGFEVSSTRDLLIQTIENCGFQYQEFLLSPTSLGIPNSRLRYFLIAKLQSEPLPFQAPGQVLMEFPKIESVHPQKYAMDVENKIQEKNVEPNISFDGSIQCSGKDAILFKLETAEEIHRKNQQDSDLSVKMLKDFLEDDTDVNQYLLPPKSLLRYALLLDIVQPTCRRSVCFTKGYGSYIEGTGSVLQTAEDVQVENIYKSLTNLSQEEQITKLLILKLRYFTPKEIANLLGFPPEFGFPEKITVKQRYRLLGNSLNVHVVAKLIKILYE
As to the kind of experiment: Binding affinity to full length human N-terminal his6-tagged DNMT2 expressed in Escherichia coli Rosetta2(DE3)pLysS assessed as dissociation constant at 100 uM by isothermal titration calorimetry assay.

The target in data set [2] is T1, tRNA (cytosine(38)-C(5))-methyltransferase. As to the kind of experiment: Inhibition of full length human N-terminal his6-tagged DNMT2 expressed in Escherichia coli Rosetta2(DE3)pLysS by […] assay. Background: Isothermal titration calorimetry measures the heat released or taken up as one component is titrated into another.
Data set [3] concerns the target T2, tRNA (cytosine(38)-C(5))-methyltransferase (Homo sapiens) (UniProt O14717).
T2 sequence (whole entry): T1 sequence (O14717 whole entry)
As to the kind of experiment: Binding affinity to full length human N-terminal his6-tagged DNMT2 expressed in Escherichia coli Rosetta2(DE3)pLysS assessed as gibbs free energy change at 100 uM by isothermal titration calorimetry assay.

In data set [4] the target is T2, tRNA (cytosine(38)-C(5))-methyltransferase (Homo sapiens). As to the kind of experiment: Binding affinity to full length human N-terminal his6-tagged DNMT2 expressed in Escherichia coli Rosetta2(DE3)pLysS assessed as change in enthalpy change at 100 uM by isothermal titration calorimetry assay.
The target is the same in data set [5]. As to the kind of experiment: Binding affinity to full length human N-terminal his6-tagged DNMT2 expressed in Escherichia coli Rosetta2(DE3)pLysS assessed as change in entropy at 100 uM by isothermal titration calorimetry assay.
For data set [6], the target named is DNA (cytosine-5)-methyltransferase 3A (Homo sapiens) (UniProt Q9Y6K1). As to the kind of experiment: Inhibition of recombinant human DNMT3A-3L expressed in Escherichia coli Rosetta2(DE3)pLysS at 100 uM using Poly(dI-dC)-Poly(dI-dC) as substrate measured at 150 mins by liquid scintillation counting analysis.
In data set [7] the target is RNA cytosine C(5)-methyltransferase NSUN2 (Homo sapiens) (UniProt Q08J23). As to the kind of experiment: Inhibition of full length recombinant human NSUN2 expressed in Escherichia coli Rosetta2(DE3)pLysS at 100 uM measured at 20 mins by liquid scintillation counting analysis.
For data set [8], the target named is T3, tRNA (cytosine(72)-C(5))-methyltransferase NSUN6 (Homo sapiens) (UniProt Q8TEA1).
T3 sequence (whole entry): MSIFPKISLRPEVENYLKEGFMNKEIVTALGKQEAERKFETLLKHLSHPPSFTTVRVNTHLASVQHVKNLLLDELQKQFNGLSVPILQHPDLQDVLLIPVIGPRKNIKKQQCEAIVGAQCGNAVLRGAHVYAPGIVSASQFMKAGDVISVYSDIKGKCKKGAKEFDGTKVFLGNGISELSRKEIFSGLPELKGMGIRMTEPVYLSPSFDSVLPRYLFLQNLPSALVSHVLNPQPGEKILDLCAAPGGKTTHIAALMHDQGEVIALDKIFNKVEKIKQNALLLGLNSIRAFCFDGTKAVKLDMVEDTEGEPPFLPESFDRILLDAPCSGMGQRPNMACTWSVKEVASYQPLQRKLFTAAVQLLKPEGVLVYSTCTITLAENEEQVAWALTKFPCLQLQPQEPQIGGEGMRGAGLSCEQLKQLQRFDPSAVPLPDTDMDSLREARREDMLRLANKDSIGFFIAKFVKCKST
As to the kind of experiment: Inhibition of full length human NSUN6 expressed in Escherichia coli Rosetta2(DE3)pLysS at 100 uM measured at 20 mins by liquid scintillation counting analysis.

The target of data set [9] is T4, Histone-lysine N-methyltransferase EHMT2 (Homo sapiens) (UniProt Q96KQ7).
T4 sequence (whole entry): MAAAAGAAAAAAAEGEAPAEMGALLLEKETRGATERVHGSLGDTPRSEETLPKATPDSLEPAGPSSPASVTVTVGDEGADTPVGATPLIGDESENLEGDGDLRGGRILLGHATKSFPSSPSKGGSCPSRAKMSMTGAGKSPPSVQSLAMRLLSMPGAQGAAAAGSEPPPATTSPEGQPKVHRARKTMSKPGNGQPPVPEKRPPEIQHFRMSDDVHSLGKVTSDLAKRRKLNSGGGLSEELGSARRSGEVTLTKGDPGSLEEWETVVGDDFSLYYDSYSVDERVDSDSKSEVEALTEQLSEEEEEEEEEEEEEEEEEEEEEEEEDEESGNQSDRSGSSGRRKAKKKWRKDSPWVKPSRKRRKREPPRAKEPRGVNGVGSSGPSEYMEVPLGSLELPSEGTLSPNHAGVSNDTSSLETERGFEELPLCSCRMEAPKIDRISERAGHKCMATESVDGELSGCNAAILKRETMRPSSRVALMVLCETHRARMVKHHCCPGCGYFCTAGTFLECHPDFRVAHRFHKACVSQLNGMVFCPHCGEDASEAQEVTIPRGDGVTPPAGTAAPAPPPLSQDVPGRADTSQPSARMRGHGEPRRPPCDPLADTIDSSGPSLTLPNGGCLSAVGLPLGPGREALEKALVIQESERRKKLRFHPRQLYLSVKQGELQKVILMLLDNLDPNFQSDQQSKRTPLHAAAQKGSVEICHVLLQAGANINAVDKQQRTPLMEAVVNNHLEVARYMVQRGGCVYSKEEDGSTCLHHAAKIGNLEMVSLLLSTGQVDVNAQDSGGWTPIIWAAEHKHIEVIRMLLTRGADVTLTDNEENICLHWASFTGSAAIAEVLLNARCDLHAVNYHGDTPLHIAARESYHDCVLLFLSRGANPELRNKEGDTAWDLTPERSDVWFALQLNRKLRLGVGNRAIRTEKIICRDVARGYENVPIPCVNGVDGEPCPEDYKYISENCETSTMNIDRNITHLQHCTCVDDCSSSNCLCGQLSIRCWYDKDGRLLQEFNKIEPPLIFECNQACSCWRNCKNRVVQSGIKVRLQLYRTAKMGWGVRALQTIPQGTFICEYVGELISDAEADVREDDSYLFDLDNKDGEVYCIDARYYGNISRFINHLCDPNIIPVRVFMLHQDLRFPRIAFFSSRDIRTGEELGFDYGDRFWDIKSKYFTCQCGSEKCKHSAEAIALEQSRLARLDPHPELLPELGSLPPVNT
As to the kind of experiment: Inhibition of recombinant human EHMT2 G9a expressed in Escherichia coli Rosetta2(DE3)pLysS at 100 uM using histone H3 as substrate measured at 120 mins by liquid scintillation counting analysis.

The target in data set [10] is T2, tRNA (cytosine(38)-C(5))-methyltransferase (Homo sapiens). As to the kind of experiment: Inhibition of full length human N-terminal his6-tagged DNMT2 expressed in Escherichia coli Rosetta2(DE3)pLysS at 100 uM by liquid scintillation counting analysis.
Data set [11] is described as follows: Selectivity ratio of Kd for binding affinity to full length human N-terminal his6-tagged DNMT2 expressed in Escherichia coli Rosetta2(DE3)pLysS assessed as dissociation constant to IC50 for inhibition of full length human N-terminal his6-tagged DNMT2 expressed in Escherichia coli Rosetta2(DE3)pLysS.
The nature of data set [12]: Cytotoxicity against human HEK293 cells assessed as cell viability at 100 uM measured after 24 hrs by MTT assay. The format is toxicity, cell-based. (Tetrazolium assays rely on reduction of a dye to a coloured formazan, in cell work by metabolically active cells.)
In data set [13] the target is T2, tRNA (cytosine(38)-C(5))-methyltransferase (Homo sapiens). As to the kind of experiment: Inhibition of DNMT2-mediated tRNA methylation in human HEK293 cells assessed as reduction in m5C at C38 of tRNA by measuring m5C level at 100 uM incubated for 24 hrs by bisulfite sequencing analysis. The class given is cell-based.
The nature of data set [14]: Permeability of the compound in human Caco-2 cells assessed as compound remaining by measuring ester form of the acceptor compartment incubated for 24 hrs by LC/MS analysis. The format is ADME, cell-based. Conditions: caco-2, 24 h. In general terms: Caco-2 cells form a polarised layer with tight junctions and transporters.
Data set [15] can be described thus: Stability of the compound in TRIS buffer at 7.4 pH assessed as hydrolysis of ethyl ester at 100 uM incubated for 24 hrs by LC-MS analysis. The class given is physicochemical. Conditions: pH 7.4, read-out: Drug degradation.
Data set [16] in a line: Permeability of the compound in human Caco-2 cells assessed as compound remaining by measuring ester form of the donor compartment incubated for 24 hrs by LC/MS analysis. The class given is ADME, cell-based. To be noted: read-out: Activity.
Data set [17] can be described thus: Permeability of the compound in human Caco-2 cells assessed as compound remaining by measuring acid form of the donor compartment incubated for 24 hrs by LC/MS analysis. The format is ADME, cell-based. Conditions: caco-2, 24 h.

We go through eight compounds from ChEMBL document CHEMBL5131574, “Discovery of Inhibitors of DNA Methyltransferase 2, an Epitranscriptomic Modulator and Potential Target for Cancer Treatment” (J Med Chem, 2022).

A value given as a limit tells only on which side of the number the result lay.

DNA (cytosine-5)-methyltransferase 3A (Homo sapiens), sequence (Q9Y6K1 whole entry, looked up): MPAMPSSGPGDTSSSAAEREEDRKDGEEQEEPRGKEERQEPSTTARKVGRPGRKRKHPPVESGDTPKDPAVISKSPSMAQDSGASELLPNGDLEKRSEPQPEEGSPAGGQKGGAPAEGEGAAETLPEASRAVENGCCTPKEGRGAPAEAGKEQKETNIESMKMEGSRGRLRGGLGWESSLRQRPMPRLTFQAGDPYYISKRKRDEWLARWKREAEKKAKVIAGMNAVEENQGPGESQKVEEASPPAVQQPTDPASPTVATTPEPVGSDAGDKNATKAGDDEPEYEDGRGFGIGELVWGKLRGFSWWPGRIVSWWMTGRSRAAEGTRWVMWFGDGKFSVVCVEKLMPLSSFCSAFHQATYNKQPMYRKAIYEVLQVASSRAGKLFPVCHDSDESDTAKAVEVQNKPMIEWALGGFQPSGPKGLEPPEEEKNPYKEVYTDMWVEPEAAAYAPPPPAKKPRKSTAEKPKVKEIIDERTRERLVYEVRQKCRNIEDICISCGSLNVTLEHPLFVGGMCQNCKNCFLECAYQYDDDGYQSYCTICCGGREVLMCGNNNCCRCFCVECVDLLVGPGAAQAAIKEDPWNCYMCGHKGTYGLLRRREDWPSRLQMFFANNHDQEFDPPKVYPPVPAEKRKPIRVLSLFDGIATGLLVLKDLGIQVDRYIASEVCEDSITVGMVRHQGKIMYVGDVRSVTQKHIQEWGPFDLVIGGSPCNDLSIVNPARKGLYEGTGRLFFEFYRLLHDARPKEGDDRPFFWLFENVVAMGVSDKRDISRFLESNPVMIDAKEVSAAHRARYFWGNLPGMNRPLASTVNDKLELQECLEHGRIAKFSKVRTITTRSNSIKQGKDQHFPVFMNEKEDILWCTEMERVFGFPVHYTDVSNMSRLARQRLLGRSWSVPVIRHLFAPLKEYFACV
RNA cytosine C(5)-methyltransferase NSUN2 (Homo sapiens), sequence (Q08J23 whole entry): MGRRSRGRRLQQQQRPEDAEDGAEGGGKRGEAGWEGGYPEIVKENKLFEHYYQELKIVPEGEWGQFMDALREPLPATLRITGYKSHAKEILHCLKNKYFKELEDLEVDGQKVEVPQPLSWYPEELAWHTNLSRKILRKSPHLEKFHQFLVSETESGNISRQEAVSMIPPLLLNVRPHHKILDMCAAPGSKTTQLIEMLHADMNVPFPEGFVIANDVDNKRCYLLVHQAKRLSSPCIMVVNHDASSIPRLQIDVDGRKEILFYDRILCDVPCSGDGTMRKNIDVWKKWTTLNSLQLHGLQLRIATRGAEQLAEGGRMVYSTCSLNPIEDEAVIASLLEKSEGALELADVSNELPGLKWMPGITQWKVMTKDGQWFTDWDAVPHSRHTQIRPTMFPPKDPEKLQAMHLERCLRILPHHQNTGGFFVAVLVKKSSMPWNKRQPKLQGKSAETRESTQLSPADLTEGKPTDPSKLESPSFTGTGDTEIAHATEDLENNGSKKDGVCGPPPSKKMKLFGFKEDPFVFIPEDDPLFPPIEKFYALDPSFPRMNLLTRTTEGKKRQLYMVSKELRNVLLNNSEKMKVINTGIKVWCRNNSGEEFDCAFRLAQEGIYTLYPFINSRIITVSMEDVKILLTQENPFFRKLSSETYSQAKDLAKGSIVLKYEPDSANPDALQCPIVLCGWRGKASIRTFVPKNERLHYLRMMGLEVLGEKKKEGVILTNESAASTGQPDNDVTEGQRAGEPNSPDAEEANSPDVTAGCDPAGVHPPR

In general, Kd refers to the free concentration of one partner at which half of the binding sites on the other are occupied at equilibrium, for simple one-to-one binding. What is called IC50 is the point on the concentration scale where inhibition reaches its midpoint. A low value points to greater potency. As a reminder, the inhibition is the percentage by which the read-out fell short of the control. `Nc1ncnc2c1ncn2[C@@H]1O[C@H](CSCC[C@H](N)C(=O)O)[C@@H](O)[C@H]1O` [S-ADENOSYLHOMOCYSTEINE]: in data set [1], the dissociation constant Kd stood at 13.6 µM. This compound also gave a concentration for half-maximal inhibition (IC50) in data set [2] of 15.8 µM. Also, the deltaG in data set [3] was -6.64 kcal/mol. Further, in data set [4], the deltaH is -13.2 kcal/mol. For the same compound, in data set [5], the -TdeltaS worked out at 6.57 kcal/mol. The inhibition in data set [6] was 96.7%; in data set [7], 97.3%; in [8], 99.6%; in data set [9] it was 94.3%; in data set [10] it was 85.7%.
A word on the CC50: it is the concentration that lowers cell viability or growth by half. On to `Nc1ncnc2c1ncn2[C@@H]1O[C@H](C[C@@H](N)CC[C@H](N)C(=O)O)[C@@H](O)[C@H]1O` [SINEFUNGIN], for which, in data set [1], the Kd was 7.5 µM. Also, inhibition in [2] was half-maximal at 13.2 µM (IC50). Besides, the Selectivity ratio in [11] turned out to be 2. Moreover, the deltaG in data set [3] was -7 kcal/mol. In addition, the deltaH in data set [4] is -5.86 kcal/mol. Moreover, the -TdeltaS in data set [5] is -1.15 kcal/mol. The inhibition in data set [6] amounted to 98%; in [7], 77.1%; in data set [8], 70.2%; in data set [9], 43%; in [10], 83.5%; in [13] it was 94%. The cytotoxic concentration (CC50) at 24 h in data set [12] is over 500 µM.
On to `C#CCN(CC[C@H](N)C(=O)O)C[C@H]1O[C@@H](n2cnc3c(N)ncnc32)[C@H](O)[C@@H]1O`, for which, in [1], the Kd turned out to be 11.4 µM. Besides, in data set [2], the IC50 was 77.1 µM. Besides, in data set [11], the Selectivity ratio worked out at 7. In data set [3], the deltaG was -6.74 kcal/mol. In data set [4], the deltaH is -9.03 kcal/mol. Besides, the -TdeltaS in [5] is 2.29 kcal/mol. For the same compound, the inhibition in data set [6] is 97.6%; in [8], 25.9%; in [9], 22.8%; in data set [10] it was 72.2%.
Turning to `CC#CCN(CC[C@H](N)C(=O)O)C[C@H]1O[C@@H](n2cnc3c(N)ncnc32)[C@H](O)[C@@H]1O`, the inhibition in data set [6] was found to be 93.9%; in data set [8], 12.9%; in data set [9], 37.6%.
`C#CC(C)N(CC[C@H](N)C(=O)O)C[C@H]1O[C@@H](n2cnc3c(N)ncnc32)[C@H](O)[C@@H]1O` (some centres undefined): the inhibition was 84.2% in [6] and 71% in [9]. Besides, the CC50 at 24 h in [12] was over 500 µM. Besides, in data set [14], the Activity stood at 0.6%.
As for `C#CC(C)N(CC[C@H](N)C(=O)OCC)C[C@H]1O[C@@H](n2cnc3c(N)ncnc32)[C@H](O)[C@@H]1O` (some centres undefined), the degraded at 24 h, 100 µM in data set [15] is 60%. Further, the CC50 at 24 h in data set [12] is over 500 µM. Moreover, the Activity in data set [14] is listed as 2%; in data set [17] it was “<= 78%”. For the same compound, in [16], the remaining at 24 h stood at 20%.
Consider `CCCN(CC[C@H](N)C(=O)O)C[C@H]1O[C@@H](n2cnc3c(N)ncnc32)[C@H](O)[C@@H]1O`, for which the CC50 at 24 h in data set [12] was over 500 µM.
Take `CCC#CCN(CC[C@H](N)C(=O)O)C[C@H]1O[C@@H](n2cnc3c(N)ncnc32)[C@H](O)[C@@H]1O`: the inhibition in data set [6] stood at 95.3%; in data set [8], 22.7%; in [9] it was 32%.
